# Reference: PubChem BioAssay AID1648 (Sanford-Burnham Center for Chemical Genomics, 2009)
# Calls of active or inactive are those of the source. How the calls were made is not given here.
# Biological target: Serine/threonine-protein kinase mTOR (Homo sapiens) (UniProt P42345)
# Assay: mTOR FRB domain ligand binding – biophysical, NMR (AID 1648)
# Conditions: NMR binding to FRB domain, chemical shift
# Sequence of Serine/threonine-protein kinase mTOR (Homo sapiens) (P42345 2015-2114): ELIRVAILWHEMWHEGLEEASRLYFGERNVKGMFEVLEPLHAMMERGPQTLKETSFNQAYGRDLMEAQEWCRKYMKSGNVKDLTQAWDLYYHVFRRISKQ
row,Structure (SMILES),Kd
1,Cc1occc1C(=O)NCc1ccccn1,> 4 mM (inactive)
2,Cc1ccccc1CSc1nnc(C)n1N,> 4 mM (inactive)
3,CC(=O)O[C@]1(C)CC[C@@]23CC1C(C)(C)[C@@H]2CC[C@H]3C,> 4 mM (inactive)
4,O=c1c(O)c(-c2ccccc2)oc2cc(O)ccc12,> 4 mM (inactive)
5,Nc1ccc(N2CCCCC2)cc1,> 4 mM (inactive)
6,O=C(O)CCCN1CNC(=S)NC1,> 4 mM (inactive)
7,C[C@H]1OC(O[C@H]2[C@@H](O)CC(O[C@H]3[C@@H](O)C[C@H](O[C@H]4CC[C@]5(C)C6CC[C@]7(C)[C@@H](C8=CC(=O)OC8)[C@@H](O)C[C@]7(O)[C@@H]6CC[C@@H]5C4)O[C@@H]3C)O[C@@H]2C)C[C@H](O)C1O (stereo partly drawn),> 4 mM (inactive)
8,CC(=O)c1cccc(NC(=O)C=C(C)C)c1,> 4 mM (inactive)
9,CN1CCN(C(=O)C2CCCNC2)CC1 (stereo not drawn),> 4 mM (inactive)
10,S=c1[nH]nc(-c2cccnc2)n1C1CCCCC1,> 4 mM (inactive)
11,CN(C)c1ccc(C2CC(=O)CC(=O)C2)cc1,> 4 mM (inactive)
12,COc1ccc2[nH]cc(CN(C)C)c2c1,> 4 mM (inactive)
13,Cc1c(N=Cc2ccco2)c(=O)n(-c2ccccc2)n1C,> 4 mM (inactive)
14,CC(=O)CC1(O)C(=O)Nc2ccccc21 (stereo not drawn),> 4 mM (inactive)
15,c1ccc(-c2nnc(CNCc3ccco3)o2)cc1,> 4 mM (inactive)
16,CNC(=S)Nc1ccc2c(c1)OCO2,> 4 mM (inactive)
17,NCc1nnnn1-c1ccccc1,> 4 mM (inactive)
18,Clc1ccc(-c2nnc3ccccn23)cc1,> 4 mM (inactive)
19,NCCN=C1NS(=O)(=O)c2ccccc21,> 4 mM (inactive)
20,O=C(Nn1cnnc1)c1ccccc1-c1ccccc1,> 4 mM (inactive)
21,CC(=O)O[C@@H]1CC2C(C)(C)[C@H](O)CC[C@]2(C)C2CC[C@@]3(C)[C@H](c4ccoc4)OC(=O)C4OC43[C@@]21C (stereo partly drawn),> 4 mM (inactive)
22,O=C(O)CNS(=O)(=O)c1cccs1,> 4 mM (inactive)
23,Cc1c(C(=O)NCc2ccccn2)oc2ccccc12,> 4 mM (inactive)

row,Structure (SMILES),Kd
1,O=C(OCc1c(Cl)cccc1Cl)c1cnccn1,> 4 mM (inactive)
2,C=CCn1c(N)c(C(=O)N2CCOCC2)sc1=S,> 4 mM (inactive)
3,NCCC(=O)N[C@@H](Cc1cnc[nH]1)C(=O)O,> 4 mM (inactive)
4,COc1ccc2c(=O)c(OC)c(-c3ccccc3)oc2c1,> 4 mM (inactive)
5,CC1O[C@@H](Oc2c(-c3ccc(O)c(O)c3)oc3cc(O)cc(O)c3c2=O)[C@H](O)[C@H](O)[C@H]1O (stereo partly drawn),> 4 mM (inactive)
6,Cc1cc(NC(=O)c2ccc3c(c2)OCCO3)no1,> 4 mM (inactive)
7,O=C1c2ccccc2C(=O)N1OCc1ccccc1,> 4 mM (inactive)
8,C=C1C([C@]2(C)C(CC(=O)OC)[C@@](C)(COC(C)=O)OC(=O)C[C@@H]2OC(C)=O)[C@@H](OC=O)[C@H](OC(=O)C(O)C(C)CC)[C@@]2(C)[C@H](c3ccoc3)CC(=O)C12O (stereo partly drawn),> 4 mM (inactive)
9,O=C(CSc1ccc(Cl)cc1)N1CCOCC1,> 4 mM (inactive)
10,COc1ccc(-c2coc3cc(O)ccc3c2=O)cc1,> 4 mM (inactive)
11,O=C(Nc1c[nH]c(=O)[nH]c1=O)c1cccs1,> 4 mM (inactive)
12,Cc1ccccc1NC(=S)NCCO,> 4 mM (inactive)
13,CC1(C)C2CC(=O)[C@]3(C)C(CC[C@@]4(C)[C@H](c5ccoc5)OC(=O)C5OC543)[C@@]2(C)[C@@H](O)C[C@H]1O (stereo partly drawn),> 4 mM (inactive)
14,Cn1c(NCc2ccco2)nc2ccccc21,> 4 mM (inactive)
15,CC(=O)Nc1ccc(N2CCOCC2)cc1,> 4 mM (inactive)
16,Cc1nn2c(=O)/c(=C/c3cccc(F)c3)sc2nc1=O,> 4 mM (inactive)
17,CC(=O)C1CC[C@H]2C3CC[C@H]4C[C@H](O)CC[C@]4(C)C3CC[C@]12C (stereo partly drawn),> 4 mM (inactive)
18,Cc1cc(=O)c2c(O)cc(O)c(C)c2o1,> 4 mM (inactive)
19,COC(=O)Nc1c(C)n(C)n(-c2ccccc2)c1=O,> 4 mM (inactive)
20,O=C1C2C3C=CC(C3)C2C(=O)N1CCO (stereo not drawn),> 4 mM (inactive)
21,NC(=O)c1ccc2c(c1)OCO2,> 4 mM (inactive)
22,NC1=NCc2ccccc21,> 4 mM (inactive)
23,NS(=O)(=O)c1ccc(NC(=O)C(F)(F)F)cc1,> 4 mM (inactive)

row,Structure (SMILES),Kd
1,CCc1cc2c(SCC(=O)O)ncnc2s1,> 4 mM (inactive)
2,COc1cc2c(cc1OC)C1Cc3ccc(OC)c(OC)c3CN1CC2 (stereo not drawn),> 4 mM (inactive)
3,O=C(c1cccs1)N1CCCc2ccccc21,> 4 mM (inactive)
4,Nc1nncn1C(=O)c1c(Cl)cccc1Cl,> 4 mM (inactive)
5,O=C(C1CCC(C(=O)N2CCCC2)CC1)N1CCCC1 (stereo not drawn),> 4 mM (inactive)
6,CCNS(=O)(=O)c1ccc(OC)c(C)c1,> 4 mM (inactive)
7,NC(N)=NCCCCN=C(N)N,> 4 mM (inactive)
8,Cc1nn(-c2ccccc2)nc1C(=O)O,> 4 mM (inactive)
9,Nc1cc(=O)[nH]c(=S)n1CCc1ccccc1,> 4 mM (inactive)
10,COc1ccc(C2(C)CC(=O)NC2=O)cc1 (stereo not drawn),> 4 mM (inactive)
11,Nc1ccc(C2SCCS2)cc1,> 4 mM (inactive)
12,CC[C@H]1CN2CCc3cc(OC)c(OC)cc3C2C[C@@H]1CC1NCCc2cc(OC)c(OC)cc21 (stereo partly drawn),> 4 mM (inactive)
13,NC(=O)c1ccc(N2C(=O)C=CC2=O)cc1Cl,> 4 mM (inactive)
14,COc1ccc(-c2c(C)n([O-])c(C)c(C)[n+]2=O)cc1,> 4 mM (inactive)
15,CN(C)N1C(=O)C2CCCCC2C1=O (stereo not drawn),> 4 mM (inactive)
16,OCC1CCCCCN1 (stereo not drawn),> 4 mM (inactive)
17,CC(=O)Nc1ccc(NC(=O)N2CCOCC2)cc1,> 4 mM (inactive)
18,COC(=O)N(c1ccccc1)P1(=S)OCCO1,> 4 mM (inactive)
19,O=C(O)CSc1nnc(-c2cccs2)o1,> 4 mM (inactive)
20,Nc1nc(CSc2ncn(-c3ccccc3)n2)cs1,> 4 mM (inactive)
21,CCC(CO)NC(=O)c1snnc1C (stereo not drawn),> 4 mM (inactive)
22,O=C(O)c1cccnc1-c1nc2ccccc2s1,> 4 mM (inactive)
23,CSc1ccn(CCC(=O)O)c(=O)n1,> 4 mM (inactive)

row,Structure (SMILES),Kd
1,Cc1cc2ncc(C(=O)O)c(C)n2n1,> 4 mM (inactive)
2,O=C1C2CC=CCC2C(=O)N1c1cccc(O)c1 (stereo not drawn),> 4 mM (inactive)
3,O=C(Nc1ccon1)c1ccccc1Cl,> 4 mM (inactive)
4,O=C(c1ccccc1)N1CCOCC1,> 4 mM (inactive)
5,Cc1ccc(N2C(=O)CC(Sc3ncn[nH]3)C2=O)cc1 (stereo not drawn),> 4 mM (inactive)
6,Cc1ccc2cc(C(=O)O)ccc2n1,> 4 mM (inactive)
7,NC(=O)CSc1ccc(Br)cc1,> 4 mM (inactive)
8,Nc1cccc(S(=O)(=O)N2CCCC2)c1,> 4 mM (inactive)
9,c1ccc(-n2ncc3c(NCc4ccco4)ncnc32)cc1,> 4 mM (inactive)
10,NC1=NC(=O)/C(=C/c2cccc([N+](=O)[O-])c2)S1,> 4 mM (inactive)
11,CC(=O)NC(=S)Nc1ccc(N(C)C(C)=O)cc1,> 4 mM (inactive)
12,O=C1NC(=Nc2ccccc2Cl)SC1(CO)CO,> 4 mM (inactive)
13,CC(=O)O[C@@H]1C[C@@]2(C)[C@H](c3ccoc3)C[C@H]3O[C@]32[C@]2(C)C(=O)C(O)=C3C(C)(C)C(=O)C=C[C@]3(C)C12 (stereo partly drawn),> 4 mM (inactive)
14,Cc1occc1C(=O)Nc1sccc1C(N)=O,> 4 mM (inactive)
15,O=C1CNc2cc(C(=O)O)ccc2N1,> 4 mM (inactive)
16,C[C@@H]1CC[C@@]23CCC4(C)[C@@](C=CC5[C@@]6(C)CCC(=O)C(C)(C)C6CC[C@]54C)(OC2=O)C3[C@H]1C (stereo partly drawn),> 4 mM (inactive)
17,O=C(O)C1CC(=O)N(C2Cc3ccccc3C2)C1 (stereo not drawn),> 4 mM (inactive)
18,O=C1CCCc2c1nc(-c1ccccc1)n2O,> 4 mM (inactive)
19,O=C(O)c1cccc(O)c1O,> 4 mM (inactive)
20,C[C@@H]1O[C@@H](O[C@H]2[C@@H](Oc3cc(O)c4c(c3)O[C@H](c3ccc(O)cc3)CC4=O)O[C@H](CO)[C@@H](O)[C@@H]2O)[C@H](O)[C@H](O)[C@H]1O,> 4 mM (inactive)
21,CC(=O)O[C@@H]1CC2C(C)(C)[C@H](O)C=C[C@]2(C)C2CC[C@]3(C)C(=CC(=O)O[C@H]3c3ccoc3)[C@@]21C (stereo partly drawn),> 4 mM (inactive)
22,NC(=O)CCN1C(=O)c2ccccc2C1=O,> 4 mM (inactive)
23,S=C(c1ccc2c(c1)OCO2)N1CCCC1,> 4 mM (inactive)

row,Structure (SMILES),Kd
1,C#CCCCCCCCCCCCC(=O)CC(O)COC(C)=O (stereo not drawn),> 4 mM (inactive)
2,COc1ccc(/C=C2/NC(=S)NC2=O)cc1,> 4 mM (inactive)
3,CC(=O)Nc1nc(C)c(C(C)=O)s1,> 4 mM (inactive)
4,O=C(O)C12CC3CC(CC(O)(C3)C1)C2,> 4 mM (inactive)
5,Cc1cc(C(=O)Nn2cnnc2)cs1,> 4 mM (inactive)
6,O=c1cnnc(NCc2ccc(F)cc2)[nH]1,> 4 mM (inactive)
7,O=C(NC1CC1)c1ccccc1[N+](=O)[O-],> 4 mM (inactive)
8,Cc1cc(C(=O)NC(C)c2ccncc2)no1 (stereo not drawn),> 4 mM (inactive)
9,COc1ccc(C(N)=O)cc1N,> 4 mM (inactive)
10,CC(C)=CCc1c2c(c3occ(-c4ccc(O)cc4)c(=O)c3c1O)C=CC(C)(C)O2,> 4 mM (inactive)
11,Cc1cccc(C(C)C)c1NC(=O)c1cccnc1,> 4 mM (inactive)
12,CC(=O)Nc1ccc(N2C(=O)C=CC2=O)cc1C,> 4 mM (inactive)
13,CC(=O)NC(=S)Nc1nc2ccccc2n1C(C)=O,> 4 mM (inactive)
14,Cc1cc(C(=O)Nc2cccnc2)cs1,> 4 mM (inactive)
15,CNc1nc(OC)nc(N2CCOCC2)n1,> 4 mM (inactive)
16,O=C(O)c1cccc2c1OCCCO2,> 4 mM (inactive)
17,CN=C(C)c1c(O)n(C)c(=O)n(C)c1=O,> 4 mM (inactive)
18,CC(C)=CCc1c(O)cc2occ(-c3ccc4c(c3)OCO4)c(=O)c2c1O,> 4 mM (inactive)
19,CC(=O)c1cccc(NC(=O)N2CCc3ccccc3C2)c1,> 4 mM (inactive)
20,CC(C)c1c(O)ccc2c1CCC1[C@@](C)(CO)CCC[C@]21C (stereo partly drawn),> 4 mM (inactive)
21,Nc1[nH]c(=S)[nH]c(=O)c1-c1ccccc1,> 4 mM (inactive)
